Patent US9228089B2, “Polyester polyamine and polyester polyquaternary ammonium corrosion inhibitors” (AKZO NOBEL CHEMICALS INTERNATIONAL B.V., priority 2010, dated 2016)

Tests used:
[1] = example 6 of PCT/EP2010/059325, cited from earlier work
[2] = bubble test, corrosion rate monitored by linear polarization resistance (LPR) in CO2-saturated synthetic Forties brine; conditions: 80 ppm active inhibitor, 54° C.
Method: The tests were carried out using the well-known “bubble test” method, see for instance the discussion in NACE International, Vol. 46, No. 5, pp 46-51 (May 2007), where corrosion rate is monitored by linear polarization resistance (LPR). First a baseline corrosion rate in the medium is established, and then corrosion rates with different amounts of inhibitor added are measured.
The detailed conditions for the tests were as follows: • Temperature 54° C. • CO2 CO2 Saturated at ambient pressure (˜0.9 bara partial pressure) • Liquids 100% Typical “Forties” (North Sea water) synthetic brine as shown below: • Chloride=42539 mg/l • Sulphate=0 mg/l • Barium=173 mg/l • Calcium=1979 mg/l • Strontium=351 mg/l • Magnesium=377 mg/l • Sodium=24973 mg/l • Potassium=341 mg/l • Bicarbonate=200 mg/l • Electrode Fabricated from AISI 1018 (UNS G10180), polished to 600 grit finish, degreased rinsed and dried • Inhibitor Concentration 4 hour precorrosion without inhibitor, then dose with 10 ppm of inhibitor and evaluate corrosion rate for at least 8 h, then add inhibitor so that the next level of total inhibitor dosage is reached according to Table 1. After each addition the corrosion rate is measured for at least 8 h. • Gas and partial pressure Ambient pressure test. […]

## C12-C16 Cocoalkyl di-methyl benzyl quaternary amine
[1]; 20 ppm
  % protection at 20 ppm: −28%
[1]; 50 ppm
  % protection at 50 ppm: 38%
[2]
  % Protection at 80 ppm: 89.6%
